Reference: a compilation of properties of binary mixtures (doi:10.1016/j.tca.2013.02.002)

Experiment: xn = mol fraction of the nth substance listed
Conditions: 101 kPa

CS(C)=O + CC[NH+](CC)CC.O=S(=O)([O-])O
x1 = 1
Conditions | speed of sound [m/s] | viscosity [mPa·s]
298.15 K | 1496 | 1.99
303.15 K | 1472 | 1.8
308.15 K | 1460 | 1.65

CC[NH+](CC)CC.O=S(=O)([O-])O + CS(C)=O
Conditions | speed of sound, 298.15 K [m/s] | speed of sound, 303.15 K [m/s] | speed of sound, 308.15 K [m/s] | viscosity, 298.15 K [mPa·s] | viscosity, 303.15 K [mPa·s] | viscosity, 308.15 K [mPa·s]
x1 = 0.011 | – | – | 1468 | – | – | 2.8
x2 = 0 | 1874 | 1871 | 1866 | 235 | 153 | 138
x2 = 0.0244 | – | 1867 | 1863 | – | 148 | 134
x2 = 0.0557 | 1861 | 1859 | 1857 | 219 | 142 | 129
x2 = 0.108 | 1852 | 1850 | 1850 | 204 | 132 | 120
x2 = 0.1556 | 1838 | 1836 | 1830 | 190 | 123 | 112
x2 = 0.199 | – | 1820 | 1822 | – | 115 | 105
x2 = 0.2473 | 1812 | 1808 | – | 165 | 106 | –
x2 = 0.3279 | 1786 | 1778 | 1778 | 144 | 92 | 85.4
x2 = 0.4004 | 1758 | 1748 | – | 125 | 79.3 | –
x2 = 0.4964 | 1720 | 1708 | 1706 | 101 | 63.8 | 60.6
x2 = 0.5798 | 1684 | 1670 | 1666 | 81.1 | 51.1 | 49.2
x2 = 0.653 | 1652 | – | 1632 | 64.6 | – | 39.59
x2 = 0.7376 | 1614 | 1596 | 1590 | 46.7 | 29.42 | 29.13
x2 = 0.7812 | 1594 | 1576 | 1568 | 38.2 | 24.22 | 23.96
x2 = 0.8269 | 1574 | 1554 | 1546 | 29.63 | 19.13 | 18.72
x2 = 0.8772 | 1550 | 1530 | 1520 | 20.8 | 13.67 | 13.35
x2 = 0.9156 | 1534 | 1514 | 1502 | 14.31 | 9.78 | 9.41
x2 = 0.9539 | – | 1495 | 1484 | – | 6.27 | 5.84
